# Assays:
# [1] = test system: parasympathetic nerve state (relaxation state) of test subjects; assay: stress substitution experiment (FIG. 6); assay type: in vivo, human; settings: average of six test subjects, cedrol in diethylene glycol monobutyl ether
# Source text: In this experiment, instead of actual driving, a stress substitution experiment is applied to confirm effects. The stress substitution experiment may be, for example, repetitively performing simple calculations, handling heavy objects with difficult posture, etc.
# In the above stress substitution experiment, with respect to an initial state, the parasympathetic nerve state (relaxation state) of the test subjects decreases when stressed. […] In other words, it is possible for a mixture solvent of cedrol is change an irritated state to a relaxed state.
# [2] = test system: α-II waves and θ waves in the brain; assay: human brain waves recorded in an environment where cedrol is volatilized (FIG. 3); assay type: in vivo
# Procedure: Further, from the start of volatilization of cedrol and until cedrol concentration reaches 300 μg/m^3, the activity voltage of α-II waves is greater than that of θ waves, and it is understood that this is suitable for relaxing a person. Further, once cedrol concentration exceeds 300 μg/m^3, the activity voltage of […] is greater than that of α-II waves, and it is understood that this is suitable for promoting sleepiness in a person.
# [3] = test system: humans; settings: general statement; cited from earlier work
# [4] = test system: parasympathetic nerves; assay: parasympathetic nerve state with respect to cedrol concentration (FIG. 4); assay type: in vivo, human
# Procedure: Then, once cedrol concentration exceeds 300 μg/m^3, due to excessive relaxation, sleepiness is promoted.
smiles,measurement,setting,value
C[C@@H]1CC[C@H]2C(C)(C)[C@H]3C[C@@]12CC[C@@]3(C)O [cedrol],parasympathetic nerve state (relaxation state) after release of mixture solvent vapor to stressed test subjects,[1],increases to above the initial state
same,cedrol concentration at which activity voltage of α-II waves is greater than that of θ waves (suitable for relaxing),[2]; from the start of volatilization,≤ 300 μg/m^3
same,activity voltages of α-II waves (relaxation) and θ waves (falling asleep),"[2]; human brain waves, volatilized cedrol, with rising concentration",both increase as the concentration of cedrol increases
same,cedrol concentration at which activity voltage of θ waves is greater than that of α-II waves (promoting sleepiness),[2]; volatilized cedrol in air,exceeds 300 μg/m^3
same,physiological effects in humans,[3],"lowering heat rate, respiratory rate, blood pressure, etc. in humans, and also increasing α-II waves in the brain"
same,lower limit of cedrol for exhibiting a relaxation effect,[4]; volatilization amount in vehicle cabin,0.5 μg/m^3
same,cedrol concentration at which sleepiness is promoted due to excessive relaxation,[4]; volatilized cedrol in air,exceeds 300 μg/m^3
same,parasympathetic nerve state with increasing cedrol concentration,[4]; volatilized cedrol in air,parasympathetic nerves become significant
